The series in a line: Longevity of ESR signals in aqueous solution obtained by adding an acid to sodium chlorite. The series is classed as physicochemical. As to conditions: relatively low concentration of HCl (0.1 M sodium chlorite with 0.08 M HCl 1:1), stored in a dark location. On the procedure:
An aqueous solution obtained by adding an acid to sodium chlorite was prepared by mixing 0.1 M sodium chlorite with 2.5 M hydrochloric acid to achieve a desired concentration by using ion exchange water. The concentration of sodium chlorite was measured by standard iodometry.
An aqueous solution obtained by adding an acid to sodium chlorite was placed in a glass capillary tube with a length of 100 mm and inner diameter of 2 mm. The glass capillary was transferred to a capillary cell attached to an ESR cavity, and ESR measurement was taken by using an X band spectrometer (JEOL FA-100ESR) operated at 9.43 GHz at room temperature. The magnetic field was modulated at 100 KHz. […] The signal intensity was normalized with respect to an MnO marker, and the concentration of stable radical products was determined based on signal height by using an external standard TEMPOL. Radical species found in an aqueous solution obtained by adding an acid to sodium chlorite was quantified by using an integrated software for determining a spectral region mounted onto an ESR device.
Free radicals in an aqueous solution obtained by adding an acid to sodium chlorite were measured by using ESR measurement. […] The solution was measured 4 minutes later by ESR spectroscopy. […]

Consider 1 substance from patent publication US20240246815A1, “CHLORINE PEROXIDE RADICAL, AND PRODUCTION METHOD, COMPOSITION, QUANTIFICATION METHOD AND USE THEREOF” (SANKEI CO., LTD., priority 2021, published 2024).

Take chlorine peroxide radical: the “ESR signals remained stable” value is “one”.
